Measurements taken from article PMC8004929, “Whole-Body Pharmacokinetics and Physiologically Based Pharmacokinetic Model for Monomethyl Auristatin E (MMAE)” (Journal of Clinical Medicine, 2021).
Square brackets hold non-standard residues; d marks the D form. Peptide text beside a SMILES is read from it. * marks the point of attachment. Dolaproine = CO[C@@H]([C@@H]1CCCN1)[C@@H](C)C(=O)O; Dil = CC[C@H](C)[C@H](NC)[C@@H](CC(=O)O)OC; X1 = C[C@@H](N*)[C@@H](O)c1ccccc1; NMeV = CN[C@H](C(=O)O)C(C)C

How the values were obtained:
[1] = cited from earlier work
Source text: The PK profile of MMAE in plasma dropped rapidly, while concentrations in tissues were retained for a prolonged period of time. This could be because of the binding of MMAE to its intracellular target, tubulin. […] Since plasma and tissue concentration profiles were not parallel, plasma exposure ...

tumor cells [2] = details: cited from earlier work
Source text: Table 1 A glossary of literature-derived and estimated parameters used for the MMAE PBPK model. | column: Value

[3] = bile-duct cannulated rat; cited from earlier work
Description: The scaling factors used were 135 ± 10 (10^6 cells/g) for hepatocytes and 41.9 ± 24.5 (mg/g) for microsome studies. Metabolic CL and non-metabolic (mostly biliary) CL were assumed to account for 40% and 60% of total CL. This assumption is based on a human mass balance study and a bile-duct cannulated rat study, which reported that ≈60% of MMAE is excreted unchanged in the bile. As such, the CLint extrapolated from in vitro study was 109–126 mL/min (hepatocyte) and 121–462 mL/min (microsome). The CLint approximated from our in vivo data was 146 mL/min using the convent ...

tumor cells [4] = assay: Cell-level tumor disposition model parameters; parameters: species or system mice; details: Estimated by PBPK model
Source text: Characterization and prediction of MMAE concentration at the site of action (i.e., tumor) is essential to establish a reliable exposure–efficacy relationship. Therefore, a cell-level tumor disposition model was incorporated in the MMAE PBPK model. […] Both pathways also depended on the vascular density and tumor size (Equation (20)). MMAE in the tumor extracellular space can influx into the tumor cell and bind to the tubulin. The tubulin-bound MMAE can dissociate from the target and efflux from tumor intracellular space into the extracellular space.
Physiological parameters for mice were obtained from our previously published PBPK model. Radius of the tumor blood capillary ( Rcap ), average distance between two capillaries ( Rkrough ), tumor void volume for MMAE ( ε ), P, D, and efflux rate of MMAE from the cells ( kout ) were obtained from the literature. […] The estimated parameters included (1) permeability coefficient ( PSi) in all tissues except the intestines, thymus, and other compartments for which observed data were not available, (2) intrinsic hepatic clearance ( CLint ), and (3) nonspecific uptake rate of MMAE into cancer cells ( kin) . The model was fitted to the data using the maximum likelihood estimation method in ADAPT version 5 (Biomedical Simulations Resource, University of Southern California, Los Angeles, CA, USA), using the variance model shown in Equation (23). […]

[5] = Derivation of in vivo CLint (in vitro-in vivo extrapolation; NCA with well-stirred model); details: mice, 0.1 mg/kg i.v.

CC[C@H](C)[C@@H]([C@@H](CC(=O)N1CCC[C@H]1[C@H](OC)[C@@H](C)C(=O)N[C@H](C)[C@@H](O)c1ccccc1)OC)N(C)C(=O)[C@@H](NC(=O)[C@@H](NC)C(C)C)C(C)C [MMAE, Monomethyl auristatin E] (H-[NMeV]V[Dil][Dolaproine]-X1)
half-life of MMAE, reported value [1]: 5.7 h
kout, first-order efflux rate of MMAE from intracellular to extracellular space (tumor cells [2]): 0.046 h⁻¹
ε, tumor void volume for MMAE (tumor cells [2]): 0.44
D, diffusion rate across the blood vessels (tumor cells [2]; tumor): 0.0104 cm^2/h
MMAE excreted unchanged in the bile [3]: ≈ 60%
kin, first-order influx rate of MMAE from extracellular to intracellular space (tumor cells [4]): 0.185 h⁻¹
CLint derived from NCA analysis of in vivo PK data [5]: 150 mL/h
